# From US20110251286A1, “Crystalline salts and/or co-crystals of O-desmethyltramadol” (GRUENENTHAL GmbH, priority 2010, published 2011)
# Legend:
# [1] = Release in artificial intestinal juice; format: physicochemical; conditions: for Release in artificial intestinal juice, percent of the substance released: permeable bag, amount calculated on 100 mg free base; for release rate compared to the hydrochloride salt: in artificial intestinal juice
# Protocol: Investigations on release were carried out in a Sotax AT7 smart release apparatus with UV measurement (Perkin Elmer photometer).
# A vessel with Wood apparatus was used (for intrinsic release).
# A pressing of 0.5 cm^2 surface area (diameter 8 mm) was produced with a force of 200 N using approximately 100 mg of active ingredient.
# Release was carried out in a release medium, which is composed as described below: • Intestinal juice without pancreas powder, pH 6.8 (analogous to Ph. Eur.); 250.0 ml 6.8 g of potassium dihydrogenphosphate R+0.896 g of NaOH+water to 1000.0 ml.
# Release was carried out in a release volume of in each case 500±5 ml at a temperature of the release medium of 37±1° C. with a stirring speed of 100±5 rpm.
# The content determination was carried out by means of spectroscopic methods (UV spectroscopy, wavelength: 271 nm, cuvette: 10 mm). Sample taking was carried out manually.
# In this release experiment, the individual compounds were placed in a permeable bag in an amount in each case calculated on 100 mg of the free base.
# The results, expressed in percent of the substance released, are reproduced in the following tables. In this case, the compounds denote: HCl: hydrochloride; A: cinnamate; B: palmitate; C: decanoate; E: hemi-fumarate and F: hemi-sebacate.
# [2] = Dynamic vapor sorption (DVS): sorption and desorption of moisture; format: physicochemical
# Protocol: Investigations on the sorption and desorption of moisture (dynamic vapor sorption, DVS): DVS measurements were carried out on an apparatus of the type DVS 1000 from Porotec. The evaluation of the measurements was carried out using software from Surface Measurement Systems. At a temperature between 23° C. and 26° C., starting from a relative humidity of 50%, within 240 minutes the relative humidity first increased to 90% and then fell to 0%. This cycle was repeated a second time. The DVS charts shown are isothermal recordings (plots) of the change in the mass in % (change in mass—dry) as a function of the desired relative humidity in % (target RH). Correspondingly, the axes of the graphs are marked by ΔM [%] and RH [%]. The measurement curves of the first sorption are designated by 1-S, the subsequent first desorption by 1-D, the second sorption by 2-S and the second desorption by 2-D. Advantageously, mass changes between the sorption and desorption phase are as low as possible.
compound,measurement,setting,value
CN(C)CC1CCCCC1(O)c1cccc(O)c1.CN(C)CC1CCCCC1(O)c1cccc(O)c1.O=C(O)CCCCCCCCC(=O)O (stereo not shown) [F-1],"Release in artificial intestinal juice, percent of the substance released",[1]; t 2 min,90.31%
same,"Release in artificial intestinal juice, percent of the substance released",[1]; t 4 min,95.86%
same,"Release in artificial intestinal juice, percent of the substance released",[1]; t 6 min,98.37%
same,"Release in artificial intestinal juice, percent of the substance released",[1]; t 8 min,99.10%
same,"Release in artificial intestinal juice, percent of the substance released",[1]; t 10 min,98.48%
same,"Release in artificial intestinal juice, percent of the substance released",[1]; t 12 min,98.55%
same,"Release in artificial intestinal juice, percent of the substance released",[1]; t 15 min,99.15%
same,"Release in artificial intestinal juice, percent of the substance released",[1]; t 30 min,98.74%
CN(C)CC1CCCCC1(O)c1cccc(O)c1.CN(C)CC1CCCCC1(O)c1cccc(O)c1.O=C(O)CCCCCCCCC(=O)O (stereo not shown) [F-2],"Release in artificial intestinal juice, percent of the substance released",[1]; t 2 min,96.05%
same,"Release in artificial intestinal juice, percent of the substance released",[1]; t 4 min,99.26%
same,"Release in artificial intestinal juice, percent of the substance released",[1]; t 6 min,100.16%
same,"Release in artificial intestinal juice, percent of the substance released",[1]; t 8 min,1.21%
same,"Release in artificial intestinal juice, percent of the substance released",[1]; t 10 min,100.92%
same,"Release in artificial intestinal juice, percent of the substance released",[1]; t 12 min,101.24%
same,"Release in artificial intestinal juice, percent of the substance released",[1]; t 15 min,101.22%
same,"Release in artificial intestinal juice, percent of the substance released",[1]; t 30 min,101.26%
CN(C)C[C@H]1CCCC[C@]1(O)c1cccc(O)c1.Cl [HCl-1],"Release in artificial intestinal juice, percent of the substance released",[1]; t 2 min,99.16%
same,"Release in artificial intestinal juice, percent of the substance released",[1]; t 4 min,99.89%
same,"Release in artificial intestinal juice, percent of the substance released",[1]; t 6 min,98.77%
same,"Release in artificial intestinal juice, percent of the substance released",[1]; t 8 min,101.08%
same,"Release in artificial intestinal juice, percent of the substance released",[1]; t 10 min,100.57%
same,"Release in artificial intestinal juice, percent of the substance released",[1]; t 12 min,100.66%
same,"Release in artificial intestinal juice, percent of the substance released",[1]; t 15 min,99.62%
same,"Release in artificial intestinal juice, percent of the substance released",[1]; t 30 min,101.02%
CN(C)C[C@H]1CCCC[C@]1(O)c1cccc(O)c1.Cl [HCl-2],"Release in artificial intestinal juice, percent of the substance released",[1]; t 2 min,97.72%
same,"Release in artificial intestinal juice, percent of the substance released",[1]; t 4 min,98.52%
same,"Release in artificial intestinal juice, percent of the substance released",[1]; t 6 min,100.41%
same,"Release in artificial intestinal juice, percent of the substance released",[1]; t 8 min,98.83%
same,"Release in artificial intestinal juice, percent of the substance released",[1]; t 10 min,100.29%
same,"Release in artificial intestinal juice, percent of the substance released",[1]; t 12 min,98.70%
same,"Release in artificial intestinal juice, percent of the substance released",[1]; t 15 min,100.05%
same,"Release in artificial intestinal juice, percent of the substance released",[1]; t 30 min,99.96%
O=C(O)/C=C/c1ccccc1 [cinnamate],ΔM Desorption,"[2]; 1st cycle, RH 0.0 %",0.0012%
same,ΔM Desorption,"[2]; 1st cycle, RH 10.0 %",0.0432%
same,ΔM Desorption,"[2]; 1st cycle, RH 20.0 %",0.0766%
same,ΔM Desorption,"[2]; 1st cycle, RH 30.0 %",0.1106%
same,ΔM Desorption,"[2]; 1st cycle, RH 40.0 %",0.1370%
same,ΔM Desorption,"[2]; 1st cycle, RH 50.0 %",0.1624%
same,ΔM Hysteresis,"[2]; 1st cycle, RH 50.0 %",−0.0006%
same,ΔM Sorption,"[2]; 1st cycle, RH 50.0 %",0.1629%
same,ΔM Desorption,"[2]; 1st cycle, RH 60.0 %",0.2010%
same,ΔM Hysteresis,"[2]; 1st cycle, RH 60.0 %",−0.0299%
same,ΔM Sorption,"[2]; 1st cycle, RH 60.0 %",0.2309%
same,ΔM Desorption,"[2]; 1st cycle, RH 70.0 %",0.2562%
same,ΔM Hysteresis,"[2]; 1st cycle, RH 70.0 %",−0.0081%
same,ΔM Sorption,"[2]; 1st cycle, RH 70.0 %",0.2643%
same,ΔM Desorption,"[2]; 1st cycle, RH 80.0 %",0.2988%
same,ΔM Hysteresis,"[2]; 1st cycle, RH 80.0 %",0.0150%
same,ΔM Sorption,"[2]; 1st cycle, RH 80.0 %",0.2839%
same,ΔM Desorption,"[2]; 1st cycle, RH 90.0 %",0.3057%
same,ΔM Sorption,"[2]; 1st cycle, RH 90.0 %",0.3057%
same,ΔM Desorption,"[2]; 2nd cycle, RH 0.0 %",−0.0605%
same,ΔM Sorption,"[2]; 2nd cycle, RH 0.0 %",0.0012%
same,ΔM Desorption,"[2]; 2nd cycle, RH 10.0 %",−0.0253%
same,ΔM Hysteresis,"[2]; 2nd cycle, RH 10.0 %",−0.0610%
same,ΔM Sorption,"[2]; 2nd cycle, RH 10.0 %",0.0357%
same,ΔM Desorption,"[2]; 2nd cycle, RH 20.0 %",0.0046%
same,ΔM Hysteresis,"[2]; 2nd cycle, RH 20.0 %",−0.0576%
same,ΔM Sorption,"[2]; 2nd cycle, RH 20.0 %",0.0622%
same,ΔM Desorption,"[2]; 2nd cycle, RH 30.0 %",0.0322%
same,ΔM Hysteresis,"[2]; 2nd cycle, RH 30.0 %",−0.0576%
same,ΔM Sorption,"[2]; 2nd cycle, RH 30.0 %",0.0898%
same,ΔM Desorption,"[2]; 2nd cycle, RH 40.0 %",0.0605%
same,ΔM Hysteresis,"[2]; 2nd cycle, RH 40.0 %",−0.0553%
same,ΔM Sorption,"[2]; 2nd cycle, RH 40.0 %",0.1157%
same,ΔM Desorption,"[2]; 2nd cycle, RH 50.0 %",0.0881%
same,ΔM Hysteresis,"[2]; 2nd cycle, RH 50.0 %",−0.0530%
same,ΔM Sorption,"[2]; 2nd cycle, RH 50.0 %",0.1411%
same,ΔM Desorption,"[2]; 2nd cycle, RH 60.0 %",0.1169%
same,ΔM Hysteresis,"[2]; 2nd cycle, RH 60.0 %",−0.0461%
same,ΔM Sorption,"[2]; 2nd cycle, RH 60.0 %",0.1629%
same,ΔM Desorption,"[2]; 2nd cycle, RH 70.0 %",0.1480%
same,ΔM Hysteresis,"[2]; 2nd cycle, RH 70.0 %",−0.0248%
same,ΔM Sorption,"[2]; 2nd cycle, RH 70.0 %",0.1727%
same,ΔM Desorption,"[2]; 2nd cycle, RH 80.0 %",0.1658%
same,ΔM Hysteresis,"[2]; 2nd cycle, RH 80.0 %",−0.0052%
same,ΔM Sorption,"[2]; 2nd cycle, RH 80.0 %",0.1710%
same,ΔM Desorption,"[2]; 2nd cycle, RH 90.0 %",0.1532%
same,ΔM Sorption,"[2]; 2nd cycle, RH 90.0 %",0.1532%
same,ΔM Sorption,"[2]; 3rd cycle, RH 0.0 %",−0.0605%
same,ΔM Sorption,"[2]; 3rd cycle, RH 10.0 %",−0.0190%
same,ΔM Sorption,"[2]; 3rd cycle, RH 20.0 %",0.0104%
same,ΔM Sorption,"[2]; 3rd cycle, RH 30.0 %",0.0345%
same,ΔM Sorption,"[2]; 3rd cycle, RH 40.0 %",0.0599%
same,ΔM Sorption,"[2]; 3rd cycle, RH 50.0 %",0.0829%
same,release rate compared to the hydrochloride salt,[1],decreased release rates compared to the hydrochloride salt
CCCCCCCCCC(=O)O.CN(C)CC1CCCCC1(O)c1cccc(O)c1 (stereo not shown) [decanoate],release rate compared to the hydrochloride salt,[1],decreased release rates compared to the hydrochloride salt
octanoate,release rate compared to the hydrochloride salt,[1],decreased release rates compared to the hydrochloride salt
